# Patent US9290476B2, “Methylene linked quinolinyl modulators of RORγt” (Janssen Pharmaceutica NV, priority 2012, dated 2016)
# Structures can show the parent of a compound that is named as a salt. Where two headings read alike, the source gives them in different places.
# Experiments:
# [1] = tested on: IL-17 production by CD4 T cells; assay: Human Th17 assay (IL-17 production by CD4 T cells under Th17 differentiation); type: cell-based; conditions: human CD4+ T cells, IL-17 after 3 days, read-out: Human Th17 Assay, IC50 μM
# How it was run: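 Healthy-donor peripheral CD4+ T cells (1.5×10^5/well) preincubated 1 h with titrated compound (0.2% DMSO), then differentiated with anti-CD3/CD28 beads, anti-IL4, anti-IFNγ, IL1β, IL23, IL6, TGFβ and IL2 for 3 days at 37 °C. Supernatant IL-17 quantified by MSD electrochemiluminescence against a standard curve; IC50 fitted.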
# human RORγt LBD = human RORγt LBD (Homo sapiens (Human), UniProt P51449); assay: RORγt reporter assay (GAL4-RORγt LBD luciferase in HEK293T cells); type: cell-based; conditions: for RORγt reporter Assay, % inhibition @ 6 μM / IC50: HEK293T cells; for IC50: 24 hours compound treatment; for inhibition at 6 µM: HEK-293T, read-out: RORγt reporter Assay, % inhibition @ 6 μM, HEK293T cells, 6 μM
# Sequence of human RORγt LBD (P51449 258-518): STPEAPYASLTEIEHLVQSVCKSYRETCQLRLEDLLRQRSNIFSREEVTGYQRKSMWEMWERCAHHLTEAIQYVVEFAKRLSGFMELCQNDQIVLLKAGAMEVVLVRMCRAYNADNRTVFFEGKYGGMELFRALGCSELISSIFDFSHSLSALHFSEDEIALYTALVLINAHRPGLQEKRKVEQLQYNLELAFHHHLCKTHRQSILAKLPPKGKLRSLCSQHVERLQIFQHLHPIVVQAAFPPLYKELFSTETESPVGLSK
# How it was run: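 HEK293T cells transiently co-transfected with GAL4-DBD–wild-type human RORγt LBD (pBIND) and GAL4-responsive firefly luciferase reporter (pGL4.31); renilla luciferase from pBIND normalises transfection/viability. Cells in phenol-red-free DMEM, 5% lipid-reduced FCS, treated with compound 24 h. Firefly/renilla ratio plotted against compound concentration.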
# [2] = target: human RORγt ligand binding domain (RORγt LBD) (Homo sapiens (Human), UniProt P51449); assay: RORγt ThermoFluor assay (thermal shift binding affinity); conditions: estimated from thermal shift
# Sequence of human RORγt ligand binding domain (RORγt LBD) (P51449 other isoform, or with tags, fused parts or gaps): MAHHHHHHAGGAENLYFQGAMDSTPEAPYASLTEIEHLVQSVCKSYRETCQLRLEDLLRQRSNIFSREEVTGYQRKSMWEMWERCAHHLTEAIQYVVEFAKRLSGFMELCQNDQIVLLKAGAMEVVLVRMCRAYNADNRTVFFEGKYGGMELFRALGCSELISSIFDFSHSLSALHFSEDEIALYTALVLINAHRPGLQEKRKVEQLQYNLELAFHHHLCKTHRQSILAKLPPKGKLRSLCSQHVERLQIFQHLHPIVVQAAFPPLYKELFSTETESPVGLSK
# How it was run: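 Thermal shift used 0.065 mg/mL RORγt LBD with 60 μM 1,8-ANS in 100 mM Hepes pH 7.0, 10 mM NaCl, 2.5 mM GSH and 0.002% Tween-20, heated at 1 °C/min. Fluorescence was excited at 380–400 nm and emission read at 500 nm.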
SMILES,"IC50 ([1]; Homo sapiens, CD4+ T, 72 h) [µM]","RORγt reporter Assay, % inhibition @ 6 μM (human RORγt LBD) [%]",IC50 (human RORγt LBD) [µM],Kd [2] [nM],inhibition at 6 µM (human RORγt LBD) [%],IC50 [1] [µM]
"COc1nc2ccc(C(N)(c3ccc(C)nc3C)c3cnnn3C)cc2c(Cl)c1Cc1ccc(C(F)(F)F)cc1 (single isomer, unassigned) [Example 87C, (4-Chloro-2-methoxy-3-(4-(trifluoromethyl)benzyl)quinolin-6-yl)(2,6-dimethylpyridin-3-yl)(1-methyl-1H-1,2,3-triazol-5-yl)methanamine]",0.0045,99,0.012,1.3,,
"Cc1ccc(C(O)(c2ccc3nc(C#N)c(Cc4ccc(C(F)(F)F)cc4)c(C#N)c3c2)c2cnnn2C)c(C)n1 (single isomer, unassigned) [Example 88C, 6-((2,6-Dimethylpyridin-3-yl)(hydroxy)(1-methyl-1H-1,2,3-triazol-5-yl)methyl)-3-(4-(trifluoromethyl)benzyl)quinoline-2,4-dicarbonitrile]",0.0028,95,0.0088,0.04,,
"CCc1nc2ccc(C(O)(c3cnnn3C)C3CN(C(C)=O)C3)cc2c(Cl)c1Cc1ccc(C(F)(F)F)cc1 (single isomer, unassigned) [Example 90B, 1-(3-((4-Chloro-2-ethyl-3-(4-(trifluoromethyl)benzyl)quinolin-6-yl)(hydroxy)(1-methyl-1H-1,2,3-triazol-5-yl)methyl)azetidin-1-yl)ethanone]",0.012,,~0.004,0.56,98,
"CCc1nc2ccc(C(O)(c3cnnn3C)C3CN(C(C)=O)C3)cc2c(Cl)c1Cc1ccc(C(F)(F)F)cc1 (single isomer, unassigned) [Example 90C, 1-(3-((4-Chloro-2-ethyl-3-(4-(trifluoromethyl)benzyl)quinolin-6-yl)(hydroxy)(1-methyl-1H-1,2,3-triazol-5-yl)methyl)azetidin-1-yl)ethanone]",,98,0.0054,0.32,,0.0061
"Cn1cncc1C(O)(c1ccc(C(F)(F)F)nc1)c1ccc2nc(N3CCC3)c(Cc3ccc(C(F)(F)F)cc3)c(Cl)c2c1 (single isomer, unassigned) [Example 92B, (2-(Azetidin-1-yl)-4-chloro-3-(4-(trifluoromethyl)benzyl)quinolin-6-yl)(1-methyl-1H-imidazol-5-yl)(6-(trifluoromethyl)pyridin-3-yl)methanol]",,,0.1,12,96,0.034
"Cn1cncc1C(O)(c1ccc(C(F)(F)F)nc1)c1ccc2nc(N3CCC3)c(Cc3ccc(C(F)(F)F)cc3)c(Cl)c2c1 (single isomer, unassigned) [Example 92C, (2-(Azetidin-1-yl)-4-chloro-3-(4-(trifluoromethyl)benzyl)quinolin-6-yl)(1-methyl-1H-imidazol-5-yl)(6-(trifluoromethyl)pyridin-3-yl)methanol]",,97,0.017,1.4,,0.0086
"COc1nc2ccc(C(O)(c3ccc(C(F)(F)F)nc3)c3cncn3C)cc2c(Cl)c1Cc1ccc(C(F)(F)F)nc1 (single isomer, unassigned) [Example 94B, (4-Chloro-2-methoxy-3-((6-(trifluoromethyl)pyridin-3-yl)methyl)quinolin-6-yl)(1-methyl-1H-imidazol-5-yl)(6-(trifluoromethyl)pyridin-3-yl)methanol]",,,0.21,98,96,1.9
"COc1nc2ccc(C(O)(c3ccc(C(F)(F)F)nc3)c3cncn3C)cc2c(Cl)c1Cc1ccc(C(F)(F)F)nc1 (single isomer, unassigned) [Example 94C, (4-Chloro-2-methoxy-3-((6-(trifluoromethyl)pyridin-3-yl)methyl)quinolin-6-yl)(1-methyl-1H-imidazol-5-yl)(6-(trifluoromethyl)pyridin-3-yl)methanol]",,95,0.16,6.5,,0.048
"COc1nc2ccc(C(O)(c3ccc(C#N)cc3)c3cncn3C)cc2c(C#N)c1Cc1ccc(C(F)(F)F)cc1 (single isomer, unassigned) [Example 96B, 6-((4-cyanophenyl)(hydroxy)(1-methyl-1H-imidazol-5-yl)methyl)-2-methoxy-3-(4-(trifluoromethyl)benzyl)quinoline-4-carbonitrile]",,,0.16,48,97,0.05
"COc1nc2ccc(C(O)(c3ccc(C#N)cc3)c3cncn3C)cc2c(C#N)c1Cc1ccc(C(F)(F)F)cc1 (single isomer, unassigned) [Example 96C, 6-((4-cyanophenyl)(hydroxy)(1-methyl-1H-imidazol-5-yl)methyl)-2-methoxy-3-(4-(trifluoromethyl)benzyl)quinoline-4-carbonitrile]",,97,0.018,2.2,,0.0045
"COc1nc2ccc(C(O)(c3cnnn3C)C3CN(C(C)=O)C3)cc2c(Cl)c1Cc1ccc(C(F)(F)F)cc1 (single isomer, unassigned) [Example 97B, 1-(3-((4-Chloro-2-methoxy-3-(4-(trifluoromethyl)benzyl)quinolin-6-yl)(hydroxy)(1-methyl-1H-1,2,3-triazol-5-yl)methyl)azetidin-1-yl)ethanone]",,,0.0059,1.4,98,0.0034
"COc1nc2ccc(C(O)(c3cnnn3C)C3CN(C(C)=O)C3)cc2c(Cl)c1Cc1ccc(C(F)(F)F)cc1 (single isomer, unassigned) [Example 97C, 1-(3-((4-Chloro-2-methoxy-3-(4-(trifluoromethyl)benzyl)quinolin-6-yl)(hydroxy)(1-methyl-1H-1,2,3-triazol-5-yl)methyl)azetidin-1-yl)ethanone]",,99,~0.004,0.64,,0.015
"Cn1cncc1C(O)(c1ccc(Cl)cc1)c1ccc2nc(Cl)c(Cc3ccccc3)c(Cl)c2c1 (centres unmarked) [Example 1, (3-Benzyl-2,4-dichloroquinolin-6-yl)(4-chlorophenyl)(1-methyl-1H-imidazol-5-yl)methanol]",0.59,,0.35,18,72,
"OC(c1cccnc1)(c1cccc(Cl)c1)c1ccc2nc(Cl)c(Cc3ccc(-n4cccn4)cc3)c(Cl)c2c1 (centres unmarked) [Example 5, (3-(4-(1H-Pyrazol-1-yl)benzyl)-2,4-dichloroquinolin-6-yl)(3-chlorophenyl)(pyridin-3-yl)methanol.TFA]",0.066,,0.057,11,117,
"CS(=O)(=O)c1ccc(Cc2c(Cl)nc3ccc(C(O)(c4cccnc4)c4cccc(Cl)c4)cc3c2Cl)cc1 (centres unmarked) [Example 8, (3-Chlorophenyl)(2,4-dichloro-3-(4-(methylsulfonyl)benzyl)quinolin-6-yl)(pyridin-3-yl)methanol.TFA]",0.079,,0.068,43,103,
"OC(c1cccnc1)(c1ccc2nc(Cl)c(Cc3ccc(Cl)cc3)c(Cl)c2c1)c1cncs1 (centres unmarked) [Example 9, (2,4-Dichloro-3-(4-chlorobenzyl)quinolin-6-yl)(pyridin-3-yl)(thiazol-5-yl)methanol.TFA]",0.085,,0.0065,0.83,85,
"Cn1cncc1C(O)(c1ccc(Cl)cc1)c1ccc2nc(Cl)c(Cc3ccc(-n4cccn4)cc3)c(Cl)c2c1 (centres unmarked) [Example 11, (3-(4-(1H-Pyrazol-1-yl)benzyl)-2,4-dichloroquinolin-6-yl)(4-chlorophenyl)(1-methyl-1H-imidazol-5-yl)methanol.TFA]",0.3,,0.16,75,104,
"CCOc1nc2ccc(C(O)(c3cncs3)c3cncn3C)cc2c(Cl)c1Cc1ccc(-n2cccn2)cc1 (centres unmarked) [Example 16, (3-(4-(1H-Pyrazol-1-yl)benzyl)-4-chloro-2-ethoxyquinolin-6-yl)(1-methyl-1H-imidazol-5-yl)(thiazol-5-yl)methanol.TFA]",0.054,,0.038,6.6,104,
"CCN(C)c1nc2ccc(C(O)(c3ccc(Cl)cc3)c3cncn3C)cc2c(Cl)c1Cc1ccc(-n2cccn2)cc1 (centres unmarked) [Example 17, (3-(4-(1H-Pyrazol-1-yl)benzyl)-4-chloro-2-(ethyl(methyl)amino)quinolin-6-yl)(4-chlorophenyl)(1-methyl-1H-imidazol-5-yl)methanol.TFA]",1.2,,0.38,310,96,
"COc1ccc(C(O)(c2ccc3nc(OC)c(Cc4ccc(-n5cccn5)cc4)c(Cl)c3c2)c2cncs2)cn1 (centres unmarked) [Example 20A, (3-(4-(1H-Pyrazol-1-yl)benzyl)-4-chloro-2-methoxyquinolin-6-yl)(6-methoxypyridin-3-yl)(thiazol-5-yl)methanol]",0.015,,0.026,3.8,101,
